Measured values from the OligoGym collection.
Values joined by “and” are separate entries in the source; they are usually repeats but may differ in a detail not shown here. Equal values may be shown once. After the bases stand the sugars from the 5' end (letter, count) and the backbone: PS all phosphorothioate, else s phosphorothioate and o phosphodiester by linkage. HELM strings list units from the 5' end as sugar, base in round brackets, then linkage (d deoxyribose, r ribose, m 2'-O-methyl, p phosphodiester). Methylation of C is not given here. [moe] = 2'-O-(2-methoxyethyl) (MOE); [cEt] = constrained ethyl (cEt); [sp] = phosphorothioate linkage; e = 2'-O-(2-methoxyethyl) (MOE); d = 2'-deoxy (DNA)

Legend:
[1] = biological target: HBV; conditions: ASO
[2] = biological target: DGAT2; conditions: ASO

In the case of “RNA1{[moe](A)[sp].[cEt](A)[sp].[cEt](G)[sp].d(A)[sp].d(T)[sp].d(G)[sp].d(A)[sp].d(G)[sp].d(G)[sp].d(C)[sp].d(A)[sp].d(T)[sp].d(A)[sp].[cEt](G)[sp].[cEt](C)[sp].[moe](A)}$$$$V2.0”, the target mRNA inhibition ([1]; HepG2, 0.07 µM) is reported as 64% and 62%.

“RNA1{[moe](A)[sp].[cEt](A)[sp].[cEt](T)[sp].d(T)[sp].d(T)[sp].d(A)[sp].d(T)[sp].d(G)[sp].d(C)[sp].d(C)[sp].d(T)[sp].d(A)[sp].d(C)[sp].[cEt](A)[sp].[cEt](G)[sp].[moe](C)}$$$$V2.0” was tested, and the target mRNA inhibition ([1]; HepG2, 0.07 µM) was 70% and 73%.

With “RNA1{[moe](A)[sp].[cEt](A)[sp].[moe](G)[sp].[cEt](C)[sp].d(G)[sp].[cEt](A)[sp].d(A)[sp].d(G)[sp].d(T)[sp].d(G)[sp].d(C)[sp].d(A)[sp].d(C)[sp].[moe](A)[sp].[moe](C)[sp].[moe](G)[sp].[moe](G)}$$$$V2.0” the target mRNA inhibition ([1]; HepG2, 0.009375 µM) was 31%, the target mRNA inhibition ([1]; HepG2, 0.01875 µM) was 28% and the target mRNA inhibition ([1]; HepG2, 0.0375 µM) was 48%. For the same substance, the target mRNA inhibition ([1]; HepG2, 0.075 µM) was 61%, the target mRNA inhibition ([1]; HepG2, 0.15 µM) was 80% and the target mRNA inhibition ([1]; HepG2, 0.3 µM) was 90%.

With “RNA1{[moe](A)[sp].[cEt](C)[sp].[cEt](A)[sp].d(G)[sp].d(C)[sp].d(T)[sp].d(T)[sp].d(G)[sp].d(G)[sp].d(A)[sp].d(G)[sp].d(G)[sp].d(C)[sp].[cEt](T)[sp].[cEt](T)[sp].[moe](G)}$$$$V2.0” the target mRNA inhibition ([1]; HepG2, 0.07 µM) was 10% and 0%.

For “RNA1{[moe](A)[sp].[cEt](C)[sp].[cEt](G)[sp].d(G)[sp].d(G)[sp].d(C)[sp].d(A)[sp].d(A)[sp].d(C)[sp].d(A)[sp].d(T)[sp].d(A)[sp].d(C)[sp].[cEt](C)[sp].[cEt](T)[sp].[moe](T)}$$$$V2.0”, the target mRNA inhibition ([1]; HepG2, 0.0092593 µM) was 38%, the target mRNA inhibition ([1]; HepG2, 0.0277778 µM) was 73% and the target mRNA inhibition ([1]; HepG2, 0.07 µM) was 63% and 88%. The target mRNA inhibition ([1]; HepG2, 0.0833333 µM) was 87% and the target mRNA inhibition ([1]; HepG2, 0.25 µM) was 92%.

“RNA1{[moe](A)[sp].[cEt](C)[sp].d(T)[sp].d(G)[sp].d(G)[sp].d(A)[sp].d(G)[sp].d(C)[sp].d(C)[sp].d(A)[sp].d(C)[sp].d(C)[sp].[cEt](A)[sp].[moe](G)[sp].[cEt](C)[sp].[moe](A)}$$$$V2.0” was tested, and the target mRNA inhibition ([1]; HepG2, 0.07 µM) was 67% and 55%.

For “RNA1{[moe](A)[sp].[cEt](G)[sp].[cEt](A)[sp].d(T)[sp].d(G)[sp].d(A)[sp].d(G)[sp].d(G)[sp].d(C)[sp].d(A)[sp].d(T)[sp].d(A)[sp].d(G)[sp].[cEt](C)[sp].[cEt](A)[sp].[moe](G)}$$$$V2.0”, the target mRNA inhibition ([1]; HepG2, 0.07 µM) was 59% and 56%.

For “RNA1{[moe](A)[sp].[cEt](G)[sp].[cEt](C)[sp].d(G)[sp].d(A)[sp].d(A)[sp].d(G)[sp].d(T)[sp].d(G)[sp].d(C)[sp].d(A)[sp].d(C)[sp].d(A)[sp].[cEt](C)[sp].[cEt](G)[sp].[moe](G)}$$$$V2.0”, the target mRNA inhibition ([1]; HepG2, 0.0092593 µM) was 19%, the target mRNA inhibition ([1]; HepG2, 0.0277778 µM) was 52% and the target mRNA inhibition ([1]; HepG2, 0.07 µM) was 83% and 82%. The target mRNA inhibition ([1]; HepG2, 0.0833333 µM) was 86% and the target mRNA inhibition ([1]; HepG2, 0.25 µM) was 93%.

“RNA1{[moe](A)[sp].[cEt](G)[sp].[cEt](C)[sp].d(T)[sp].d(T)[sp].d(G)[sp].d(G)[sp].d(A)[sp].d(G)[sp].d(G)[sp].d(C)[sp].d(T)[sp].d(T)[sp].[cEt](G)[sp].[cEt](A)[sp].[moe](A)}$$$$V2.0” was tested, and the target mRNA inhibition ([1]; HepG2, 0.07 µM) was 5% and 0%.

“TTGCCACTCCCATTCTTTGA (sugars e5 d10 e5, PS)” was tested, and the target mRNA inhibition ([2]; HepG2, 0.12 µM) was 39% and 57%.

“TTGCTTAAACAGATAAGCAC (sugars e5 d10 e5, PS)” gave a target mRNA inhibition ([2]; HepG2, 0.12 µM) of 17%.

For “TTGGAGTAGGGCACCAGCCC (sugars e5 d10 e5, PS)”, the target mRNA inhibition ([2]; HepG2, 0.12 µM) was 16%.

“TTGTGTGTCTTCACCAGCTG (sugars e2 d13 e5, PS)” gave a target mRNA inhibition ([2]; HepG2, 0.12 µM) of 71%.

In the case of “TTTCCATTTTTTACCCAACC (sugars e5 d10 e5, PS)”, the target mRNA inhibition ([2]; HepG2, 2.5 µM) is reported as 54% and the target mRNA inhibition ([2]; HepG2, 10 µM) is reported as 90%.

Substance “TTTCCTTCTTAAAAAAGACC (sugars e5 d10 e5, PS)” has a target mRNA inhibition ([2]; HepG2, 0.12 µM) of 9%.

For “TTTCCTTTGAAATCCAATGC (sugars e5 d10 e5, PS)”, the target mRNA inhibition ([2]; HepG2, 2.5 µM) was 69% and the target mRNA inhibition ([2]; HepG2, 10 µM) was 90%.

In the case of “TTTGGATAGTCGATTTACCA (sugars e5 d10 e5, PS)”, the target mRNA inhibition ([2]; HepG2, 0.12 µM) is reported as 41%.
